Source: ChEMBL document CHEMBL4431316, “New 6-Aminoquinoxaline Derivatives with Neuroprotective Effect on Dopaminergic Neurons in Cellular and Animal Parkinson Disease Models” (J Med Chem, 2016)
Activity calls are given as the source filed them. The calls are words filed in the database; no cut-off is given here.

Species on record: Rattus norvegicus
Experiment: Neuroprotective activity in Sprague-Dawley rat DA neuron death PD model assessed as inhibition of calcium mobilization at 50 uM after 10 days in presence of N-type voltage gated calcium channel blocker omega-conotoxin M7A
Assay type: functional

Nc1ccc2ncc(-c3ccccc3)nc2c1
inhibition: Active
